Data taken from patent US20250333406A1, “SULFONYL CYCLIC DERIVATIVES, AND COMPOSITIONS AND METHODS THEREOF” (Lysoway Therapeutics, Inc., priority 2023, published 2025).

Tested on: TFEB
Experiment: TFEB Nuclear Translocation Assay
Type: cell-based
Settings: read-out: EC50 of TFEB activation

EC50 [nM]	SMILES
≤ 1000	CC(C)S(=O)(=O)c1ccc(S(=O)(=O)n2nc(N3CCN(c4ncc(F)cn4)C[C@H]3C3CC3)c3c(Cl)cccc32)cc1 (single isomer, unassigned) [Compound 61]
≤ 1000	CC(C)S(=O)(=O)c1ccc(S(=O)(=O)n2nc(N3CCN(c4ncc(F)cn4)C[C@H]3C(F)(F)F)c3c(Cl)cccc32)cc1 (single isomer, unassigned) [Compound 69]
≤ 1000	CC(C)S(=O)(=O)c1ccc(S(=O)(=O)n2nc(N3CCN(c4ncc(F)cn4)C[C@H]3C(F)(F)F)c3c(F)cccc32)cc1 (single isomer, unassigned) [Compound 73]
≤ 1000	CC(C)S(=O)(=O)c1ccc(S(=O)(=O)n2nc(N3CC=C(Cl)C[C@H]3C(F)(F)F)c3c(Cl)cccc32)cc1 (single isomer, unassigned) [Compound 83]
≤ 1000	CC(C)S(=O)(=O)c1ccc(S(=O)(=O)n2nc(N3CCC[C@H]3C(F)(F)F)c3c(Cl)cccc32)cc1 (single isomer, unassigned) [Compound 110]
≤ 1000	CC(C)S(=O)(=O)c1ccc(S(=O)(=O)n2nc(N3CCN(c4ncc(Cl)cn4)CC34CC4)c3c(Cl)cccc32)cc1 [Compound 2, 4-chloro-3-(7-(5-chloropyrimidin-2-yl)-4,7-diazaspiro [2.5]octan-4-yl)-1-((4-(isopropylsulfonyl)phenyl)sulfonyl)-1H-indazole]
≤ 1000	CC(C)S(=O)(=O)c1ccc(S(=O)(=O)n2nc(N3CCN(c4ncc(F)cn4)CC34CC4)c3c(Cl)cc(F)cc32)cc1 [Compound 3, 4-chloro-6-fluoro-3-(7-(5-fluoropyrimidin-2-yl)-4,7-diazaspiro [2.5]octan-4-yl)-1-((4-(isopropylsulfonyl)phenyl)sulfonyl)-1H-indazole]
≤ 1000	CC(C)S(=O)(=O)c1ccc(S(=O)(=O)n2nc(N3CCN(CC(F)(F)F)CC34CC4)c3c(Cl)cccc32)s1 [Compound 6, 4-chloro-1-[(5-isopropylsulfonyl-2-thienyl)sulfonyl]-3-[7-(2,2,2-trifluoroethyl)-4,7-diazaspiro [2.5]octan-4-yl]indazole]
≤ 1000	CC(C)S(=O)(=O)c1ccc(S(=O)(=O)n2nc(N3CCN(c4ncc(F)cn4)CC34CC4)c3c(Cl)cccc32)cc1 [Compound 10, 4-chloro-3-[7-(5-fluoropyrimidin-2-yl)-4,7-diazaspiro [2.5]octan-4-yl]-1-(4-isopropylsulfonylphenyl) sulfonyl-indazole]
≤ 1000	CC(C)S(=O)(=O)c1ccc(S(=O)(=O)n2nc(N3CCN(c4ncc(Cl)cn4)CC34CC4)c3c(F)cccc32)cc1 [Compound 15, 3-(7-(5-chloropyrimidin-2-yl)-4,7-diazaspiro [2.5]octan-4-yl)-4-fluoro-1-((4-(isopropylsulfonyl)phenyl)sulfonyl)-1H-indazole]
≤ 1000	CC(C)S(=O)(=O)c1ccc(S(=O)(=O)n2nc(N3CCN(c4ncc(F)cn4)CC34CC4)c3c(F)cccc32)cc1 [Compound 16, 4-fluoro-3-(7-(5-fluoropyrimidin-2-yl)-4,7-diazaspiro [2.5]octan-4-yl)-1-((4-(isopropylsulfonyl)phenyl)sulfonyl)-1H-indazole]
≤ 1000	CC(C)S(=O)(=O)c1ccc(S(=O)(=O)n2nc(N3CCN(c4ncc(F)cn4)CC3(C)C)c3c(Cl)cccc32)cc1 [Compound 18, 4-chloro-3-(4-(5-fluoropyrimidin-2-yl)-2,2-dimethylpiperazin-1-yl)-1-((4-(isopropylsulfonyl)phenyl)sulfonyl)-1H-indazole]
≤ 1000	CC(C)S(=O)(=O)c1ccc(S(=O)(=O)n2nc(N3CCN(c4ccc(F)cn4)CC34CC4)c3c(F)cc(F)cc32)cc1 [Compound 19, 4,6-difluoro-3-[7-(5-fluoro-2-pyridyl)-4,7-diazaspiro [2.5]octan-4-yl]-1-(4-isopropylsulfonylphenyl) sulfonyl-indazole]
≤ 1000	CC(C)S(=O)(=O)c1ccc(S(=O)(=O)n2nc(N3CCN(c4ncc(F)cn4)CC34CC4)c3c(F)cc(F)cc32)cc1 [Compound 20, 4,6-difluoro-3-[7-(5-fluoropyrimidin-2-yl)-4,7-diazaspiro [2.5]octan-4-yl]-1-(4-isopropylsulfonylphenyl) sulfonyl-indazole]
≤ 1000	CC(C)(F)S(=O)(=O)c1ccc(S(=O)(=O)n2nc(N3CCN(c4ncc(F)cn4)CC34CC4)c3c(Cl)cccc32)cc1 [Compound 22, 4-chloro-1-((4-((2-fluoropropan-2-yl)sulfonyl)phenyl)sulfonyl)-3-(7-(5-fluoropyrimidin-2-yl)-4,7-diazaspiro [2.5]octan-4-yl)-1H-indazole]
≤ 1000	CC(C)S(=O)(=O)c1ccc(S(=O)(=O)n2nc(N3CCN(c4ccc(F)cn4)CC34CC4)c3c(Cl)cccc32)cc1 [Compound 23, 4-chloro-3-[7-(5-fluoro-2-pyridyl)-4,7-diazaspiro [2.5]octan-4-yl]-1-(4-isopropylsulfonylphenyl) sulfonyl-indazole]
≤ 1000	CC(C)S(=O)(=O)c1ccc(S(=O)(=O)n2nc(N3CCN(c4ncc(F)cc4F)CC34CC4)c3c(Cl)cccc32)cc1 [Compound 24, 4-chloro-3-[7-(3,5-difluoro-2-pyridyl)-4,7-diazaspiro [2.5]octan-4-yl]-1-(4-isopropylsulfonylphenyl) sulfonyl-indazole]
≤ 1000	CC(C)S(=O)(=O)c1ccc(S(=O)(=O)n2nc(N3CCN(c4ccc(F)cn4)CC34CC4)c3c(F)cccc32)cc1 [Compound 25, 4-fluoro-3-[7-(5-fluoro-2-pyridyl)-4,7-diazaspiro [2.5]octan-4-yl]-1-(4-isopropylsulfonylphenyl) sulfonyl-indazole]
≤ 1000	CC(C)S(=O)(=O)c1ccc(S(=O)(=O)n2nc(N3CCN(c4ncc(F)cc4F)CC34CC4)c3c(F)cccc32)cc1 [Compound 26, 3-[7-(3,5-difluoro-2-pyridyl)-4,7-diazaspiro [2.5]octan-4-yl]-4-fluoro-1-(4-isopropylsulfonylphenyl) sulfonyl-indazole]

The remaining lines, values behind:

SMILES	EC50 [nM]
CC(C)S(=O)(=O)c1ccc(S(=O)(=O)n2nc(N3CCN(C(=O)C(F)(F)F)C[C@H]3C(F)(F)F)c3c(Cl)cccc32)cc1 (single isomer, unassigned) [Compound 71]	≤ 1000
CC(F)(F)c1ccc(S(=O)(=O)n2nc(N3CCN(c4ncc(F)cn4)C[C@@H]3C(F)(F)F)c3c(Cl)cccc32)cc1 (single isomer, unassigned) [Compound 107]	≤ 1000
CC(F)(F)c1ccc(S(=O)(=O)n2nc(N3CCN(c4ncc(F)cn4)C[C@@H]3C(C)(C)F)c3c(Cl)cccc32)cc1 (single isomer, unassigned) [Compound 122]	≤ 1000
CC(C)(C)S(=O)(=O)c1ccc(S(=O)(=O)n2nc(N3CCN(c4ncc(Cl)cn4)CC34CC4)c3c(Cl)cccc32)s1 [Compound 1, 1-[(5-tert-butylsulfonyl-2-thienyl)sulfonyl]-4-chloro-3-[7-(5-chloropyrimidin-2-yl)-4,7-diazaspiro [2.5]octan-4-yl]indazole]	≤ 1000
CC(C)S(=O)(=O)c1cccc(S(=O)(=O)n2nc(N3CCN(c4ncc(Cl)cn4)CC34CC4)c3c(Cl)cccc32)c1 [Compound 4, 4-chloro-3-[7-(5-chloropyrimidin-2-yl)-4,7-diazaspiro [2.5]octan-4-yl]-1-(3-isopropylsulfonylphenyl) sulfonyl-indazole]	≤ 1000
CC(C)S(=O)(=O)c1ccc(S(=O)(=O)n2nc(N3CCN(c4ncc(Cl)cn4)CC3C3CC3)c3c(Cl)cccc32)s1 (stereo not drawn) [Compound 5, 4-chloro-3-[4-(5-chloropyrimidin-2-yl)-2-cyclopropyl-piperazin-1-yl]-1-[(5-isopropylsulfonyl-2-thienyl)sulfonyl]indazole]	≤ 1000
CC(C)S(=O)(=O)c1ccc(S(=O)(=O)n2nc(N3CCOCC34CC4)c3c(Cl)cccc32)s1 [Compound 7, 4-[4-chloro-1-[(5-isopropylsulfonyl-2-thienyl)sulfonyl]indazol-3-yl]-7-oxa-4-azaspiro [2.5]octane]	≤ 1000
CC(C)S(=O)(=O)c1ccc(S(=O)(=O)n2nc(N3CCC(=O)CC34CC4)c3c(Cl)cccc32)s1 [Compound 8, 4-[4-chloro-1-[(5-isopropylsulfonyl-2-thienyl)sulfonyl]indazol-3-yl]-4-azaspiro [2.5]octan-7-one]	≤ 1000
CC(C)S(=O)(=O)c1ccc(S(=O)(=O)n2nc(N3CCN(C(=O)C(F)(F)F)CC34CC4)c3c(Cl)cccc32)s1 [Compound 9, 1-[4-[4-chloro-1-[(5-isopropylsulfonyl-2-thienyl)sulfonyl]indazol-3-yl]-4,7-diazaspiro [2.5]octan-7-yl]-2,2,2-trifluoro-ethanone]	≤ 1000
CC(C)S(=O)(=O)c1ccc(S(=O)(=O)n2nc(N3CCC(F)CC34CC4)c3c(Cl)cccc32)s1 (stereo not drawn) [Compound 11, 4-chloro-3-(7-fluoro-4-azaspiro [2.5]octan-4-yl)-1-[(5-isopropylsulfonyl-2-thienyl)sulfonyl]indazole]	≤ 1000
CC(C)S(=O)(=O)c1ccc(S(=O)(=O)n2nc(N3CCC(F)(F)CC34CC4)c3c(Cl)cccc32)s1 [Compound 12, 4-chloro-3-(7,7-difluoro-4-azaspiro [2.5]octan-4-yl)-1-[(5-isopropylsulfonyl-2-thienyl)sulfonyl]indazole]	≤ 1000
CC(C)S(=O)(=O)c1ccc(S(=O)(=O)n2nc(N3CCC(N(C)C)CC34CC4)c3c(Cl)cccc32)s1 (stereo not drawn) [Compound 13, 4-[4-chloro-1-[(5-isopropylsulfonyl-2-thienyl)sulfonyl]indazol-3-yl]-N, N-dimethyl-4-azaspiro [2.5]octan-7-amine]	≤ 1000
CC(C)S(=O)(=O)c1ccc(S(=O)(=O)n2nc(N3CCN(S(=O)(=O)C(F)(F)F)CC34CC4)c3c(Cl)cccc32)s1 [Compound 14, 4-chloro-1-[(5-isopropylsulfonyl-2-thienyl)sulfonyl]-3-[7-(trifluoromethylsulfonyl)-4,7-diazaspiro [2.5]octan-4-yl]indazole]	≤ 1000
CC(C)S(=O)(=O)c1ccc(S(=O)(=O)n2nc(N3CCCC34CC4)c3c(Cl)cccc32)s1 [Compound 17, 4-chloro-1-((5-(isopropylsulfonyl)thiophen-2-yl)sulfonyl)-3-(4-azaspiro [2.4]heptan-4-yl)-1H-indazole]	≤ 1000
